Test results: ChEMBL document CHEMBL3994575, “Helixconstraints and amino acid substitution in GLP-1 increase cAMP and insulin secretion but not beta-arrestin 2 signaling” (Eur J Med Chem, 2017)
Positions of bridges follow the written chain, without caps; N, C: chain ends. Residues, ends and D or L forms follow the SMILES beside them.

Experiments:
[1] = biological target: T1, Glucagon-like peptide 1 receptor (Homo sapiens, UniProt P43220); experiment: Displacement of [125I]-GLP (7 to 36 residues) from human GLP1R expressed in CHO cell membranes incubated for 30 mins measured after 10 hrs by scintillation proximity assay
T1 sequence (P43220 whole entry, the tested form may be a part): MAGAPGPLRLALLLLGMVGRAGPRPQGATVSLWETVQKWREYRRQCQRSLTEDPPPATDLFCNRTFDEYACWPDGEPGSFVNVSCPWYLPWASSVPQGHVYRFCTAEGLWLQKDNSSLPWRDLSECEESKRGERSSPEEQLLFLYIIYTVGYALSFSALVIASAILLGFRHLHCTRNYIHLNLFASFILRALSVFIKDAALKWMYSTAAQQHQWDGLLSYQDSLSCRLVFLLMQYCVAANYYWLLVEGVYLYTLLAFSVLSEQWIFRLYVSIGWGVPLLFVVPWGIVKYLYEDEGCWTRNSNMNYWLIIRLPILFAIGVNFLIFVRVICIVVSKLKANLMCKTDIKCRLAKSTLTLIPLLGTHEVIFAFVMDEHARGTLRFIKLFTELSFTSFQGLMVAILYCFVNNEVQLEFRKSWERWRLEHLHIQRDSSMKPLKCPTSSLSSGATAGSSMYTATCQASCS

[2] = biological target: T1, Glucagon-like peptide 1 receptor; experiment: Agonist activity at human GLP1R expressed in CHOK1 cells assessed as induction of beta-galactosidase-tagged beta-arrestin2 recruitment incubated for 90 mins by PathHunter enzyme complementation assay; type: cell-based
[3] = biological target: T1, Glucagon-like peptide 1 receptor; experiment: Agonist activity at human GLP1R expressed in CHO cells assessed as cAMP accumulation incubated for 30 mins by LANCE assay; type: functional, cell-based

Row | Ki [1] [nM] | EC50 [2] [nM] | EC50 [3] [nM] | Compound
1 | 0.94 | 6.7 | 0.013 | CC[C@H](C)[C@H](NC(=O)[C@H](Cc1ccccc1)NC(=O)[C@H](CCC(=O)O)NC(=O)[C@H](CCCCN)NC(=O)[C@H](C)NC(=O)[C@H](C)NC(=O)[C@H](CCC(N)=O)NC(=O)[C@@H]1CC(=O)NCCCC[C@H](NC(=O)[C@H](CO)NC(=O)[C@@H](NC(=O)[C@H](CC(=O)O)NC(=O)[C@H](CO)NC(=O)[C@@H](NC(=O)[C@H](Cc2ccccc2)NC(=O)[C@@H](NC(=O)CNC(=O)[C@H](CCC(=O)O)NC(=O)[C@H](C)NC(=O)[C@@H](N)Cc2cnc[nH]2)[C@@H](C)O)[C@@H](C)O)C(C)C)C(=O)N[C@@H](Cc2ccc(O)cc2)C(=O)N[C@@H](CC(C)C)C(=O)N[C@@H](CCC(=O)O)C(=O)N1)C(=O)N[C@H]1CCCCNC(=O)C[C@@H](C(=O)NCC(=O)N[C@@H](CCCNC(=N)N)C(=O)NCC(N)=O)NC(=O)[C@H](C(C)C)NC(=O)[C@H](CC(C)C)NC(=O)[C@H](Cc2c[nH]c3ccccc23)NC1=O (H-HAEGTFTSDVSKYLEDQAAKEFIKWLVDGRG-NH2; lactam 12-16, 24-28)
2 | 0.47 | 4.6 | 0.011 | CC[C@H](C)[C@H](NC(=O)[C@H](Cc1ccccc1)NC(=O)[C@H](CCC(=O)O)NC(=O)[C@H](CCCCN)NC(=O)[C@H](C)NC(=O)[C@H](C)NC(=O)[C@H](CCC(N)=O)NC(=O)[C@H](C)NC(=O)[C@H](CCC(=O)O)NC(=O)[C@H](CC(C)C)NC(=O)[C@H](Cc1ccc(O)cc1)NC(=O)[C@H](CO)NC(=O)[C@H](CO)NC(=O)[C@H](Cc1ccc(O)cc1)NC(=O)[C@H](CC(=O)O)NC(=O)[C@H](CO)NC(=O)[C@@H](NC(=O)[C@H](Cc1ccccc1)NC(=O)[C@@H](NC(=O)CNC(=O)[C@H](CCC(=O)O)NC(=O)[C@H](C)NC(=O)[C@@H](N)Cc1cnc[nH]1)[C@@H](C)O)[C@@H](C)O)C(=O)N[C@H]1CCCCNC(=O)C[C@@H](C(=O)NCC(=O)N[C@@H](CCCNC(=N)N)C(=O)NCC(N)=O)NC(=O)[C@H](C(C)C)NC(=O)[C@H](CC(C)C)NC(=O)[C@H](Cc2c[nH]c3ccccc23)NC1=O (H-HAEGTFTSDYSSYLEAQAAKEFIKWLVDGRG-NH2; lactam 24-28)
3 | – | > 10000 | 300 | CC[C@H](C)[C@H](NC(=O)[C@H](Cc1ccccc1)NC(=O)[C@H](CCC(=O)O)NC(=O)[C@H](CCCCN)NC(=O)[C@H](C)NC(=O)[C@H](C)NC(=O)[C@H](CCC(N)=O)NC(=O)CNC(=O)[C@H](CCC(=O)O)NC(=O)[C@H](CC(C)C)NC(=O)[C@H](Cc1ccc(O)cc1)NC(=O)[C@H](CO)NC(=O)[C@H](CO)NC(=O)[C@@H](NC(=O)[C@H](CC(=O)O)NC(=O)[C@H](CO)NC(=O)[C@@H](NC(=O)[C@H](Cc1ccccc1)NC(=O)[C@@H](NC(=O)CNC(=O)[C@@H]1CSCC(=O)N[C@@H](Cc2cnc[nH]2)C(=O)N[C@@H](C)C(=O)N1)[C@@H](C)O)[C@@H](C)O)C(C)C)C(=O)N[C@@H](C)C(=O)N[C@@H](Cc1c[nH]c2ccccc12)C(=O)N[C@@H](CC(C)C)C(=O)N[C@H](C(=O)N[C@@H](CCCCN)C(=O)NCC(=O)N[C@@H](CCCNC(=N)N)C(=O)NCC(N)=O)C(C)C
4 | 18 | 33 | 0.35 | CC[C@H](C)[C@H](NC(=O)[C@H](Cc1ccccc1)NC(=O)[C@H](CCC(=O)O)NC(=O)[C@H](CCCCN)NC(=O)[C@H](C)NC(=O)[C@H](C)NC(=O)[C@H](CCC(N)=O)NC(=O)[C@@H]1CCCN1C(=O)[C@H](CCC(=O)O)NC(=O)[C@H](CC(C)C)NC(=O)[C@H](Cc1ccc(O)cc1)NC(=O)[C@H](CO)NC(=O)[C@H](CO)NC(=O)[C@@H](NC(=O)[C@H](CC(=O)O)NC(=O)[C@H](CO)NC(=O)[C@@H](NC(=O)[C@H](Cc1ccccc1)NC(=O)[C@@H](NC(=O)CNC(=O)[C@H](CCC(=O)O)NC(=O)[C@H](C)NC(=O)[C@@H](N)Cc1cnc[nH]1)[C@@H](C)O)[C@@H](C)O)C(C)C)C(=O)N[C@H]1CCCCNC(=O)C[C@@H](C(=O)NCC(=O)N[C@@H](CCCNC(=N)N)C(=O)NCC(N)=O)NC(=O)[C@H](C(C)C)NC(=O)[C@H](CC(C)C)NC(=O)[C@H](Cc2c[nH]c3ccccc23)NC1=O (H-HAEGTFTSDVSSYLEPQAAKEFIKWLVDGRG-NH2; lactam 24-28)
5 | > 50 | > 10000 | > 10000 | CC[C@H](C)[C@H](NC(=O)[C@H](Cc1ccccc1)NC(=O)[C@H](CCC(=O)O)NC(=O)[C@H](CCCCN)NC(=O)[C@H](C)NC(=O)[C@H](C)NC(=O)[C@H](CCC(N)=O)NC(=O)CNC(=O)[C@H](CCC(=O)O)NC(=O)[C@H](CC(C)C)NC(=O)[C@H](Cc1ccc(O)cc1)NC(=O)[C@H](CO)NC(=O)[C@H](CO)NC(=O)[C@@H](NC(=O)[C@H](CC(=O)O)NC(=O)[C@H](CO)NC(=O)[C@@H](NC(=O)[C@H](Cc1ccccc1)NC(=O)[C@@H]1CSC(=O)CN[C@@H](Cc2cnc[nH]2)C(=O)N[C@@H](C)C(=O)N[C@@H](CCC(=O)O)C(=O)NCC(=O)N1)[C@@H](C)O)C(C)C)C(=O)N[C@@H](C)C(=O)N[C@@H](Cc1c[nH]c2ccccc12)C(=O)N[C@@H](CC(C)C)C(=O)N[C@H](C(=O)N[C@@H](CCCCN)C(=O)NCC(=O)N[C@@H](CCCNC(=N)N)C(=O)NCC(N)=O)C(C)C
6 | 1.5 | 9 | 0.1 | CC[C@H](C)[C@H](NC(=O)[C@H](Cc1ccccc1)NC(=O)[C@H](CCC(=O)O)NC(=O)[C@H](CCCCN)NC(=O)[C@H](C)NC(=O)[C@H](C)NC(=O)[C@H](CCC(N)=O)NC(=O)[C@@H](NC(=O)[C@H](CCC(=O)O)NC(=O)[C@H](CC(C)C)NC(=O)[C@H](Cc1ccc(O)cc1)NC(=O)[C@H](CO)NC(=O)[C@H](CO)NC(=O)[C@@H](NC(=O)[C@H](CC(=O)O)NC(=O)[C@H](CO)NC(=O)[C@@H](NC(=O)[C@H](Cc1ccccc1)NC(=O)[C@@H](NC(=O)CNC(=O)[C@H](CCC(=O)O)NC(=O)[C@H](C)NC(=O)[C@@H](N)Cc1cnc[nH]1)[C@@H](C)O)[C@@H](C)O)C(C)C)C(C)C)C(=O)N[C@H]1CCCCNC(=O)C[C@@H](C(=O)NCC(=O)N[C@@H](CCCNC(=N)N)C(=O)NCC(N)=O)NC(=O)[C@H](C(C)C)NC(=O)[C@H](CC(C)C)NC(=O)[C@H](Cc2c[nH]c3ccccc23)NC1=O (H-HAEGTFTSDVSSYLEVQAAKEFIKWLVDGRG-NH2; lactam 24-28)
7 | 1.4 | 12 | 0.021 | CC[C@H](C)[C@H](NC(=O)[C@H](Cc1ccccc1)NC(=O)[C@H](CCC(=O)O)NC(=O)[C@H](CCCCN)NC(=O)[C@H](C)NC(=O)[C@H](C)NC(=O)[C@H](CCC(N)=O)NC(=O)CNC(=O)[C@H](CCC(=O)O)NC(=O)[C@@H]1CC(=O)NCCCC[C@H](NC(=O)[C@H](CC(=O)O)NC(=O)[C@H](CO)NC(=O)[C@@H](NC(=O)[C@H](Cc2ccccc2)NC(=O)[C@@H](NC(=O)CNC(=O)[C@H](CCC(=O)O)NC(=O)[C@H](C)NC(=O)[C@@H](N)Cc2cnc[nH]2)[C@@H](C)O)[C@@H](C)O)C(=O)N[C@@H](CO)C(=O)N[C@@H](CO)C(=O)N[C@@H](Cc2ccc(O)cc2)C(=O)N1)C(=O)N[C@H]1CCCCNC(=O)C[C@@H](C(=O)NCC(=O)N[C@@H](CCCNC(=N)N)C(=O)NCC(N)=O)NC(=O)[C@H](C(C)C)NC(=O)[C@H](CC(C)C)NC(=O)[C@H](Cc2c[nH]c3ccccc23)NC1=O (H-HAEGTFTSDKSSYDEGQAAKEFIKWLVDGRG-NH2; lactam 10-14, 24-28)
8 | 1.7 | 11 | 0.02 | CC[C@H](C)[C@H](NC(=O)[C@H](Cc1ccccc1)NC(=O)[C@H](CCC(=O)O)NC(=O)[C@H](CCCCN)NC(=O)[C@H](C)NC(=O)[C@H](C)NC(=O)[C@H](CCC(N)=O)NC(=O)[C@H](C)NC(=O)[C@H](CCC(=O)O)NC(=O)[C@H](CC(C)C)NC(=O)[C@H](Cc1ccc(O)cc1)NC(=O)[C@H](CO)NC(=O)[C@H](CO)NC(=O)[C@@H](NC(=O)[C@H](CC(=O)O)NC(=O)[C@H](CO)NC(=O)[C@@H](NC(=O)[C@H](Cc1ccccc1)NC(=O)[C@@H](NC(=O)CNC(=O)[C@H](CCC(=O)O)NC(=O)[C@H](C)NC(=O)[C@@H](N)Cc1cnc[nH]1)[C@@H](C)O)[C@@H](C)O)C(C)C)C(=O)N[C@H]1CCCCNC(=O)C[C@@H](C(=O)NCC(=O)N[C@@H](CCCNC(=N)N)C(=O)NCC(N)=O)NC(=O)[C@H](C(C)C)NC(=O)[C@H](CC(C)C)NC(=O)[C@H](Cc2c[nH]c3ccccc23)NC1=O (H-HAEGTFTSDVSSYLEAQAAKEFIKWLVDGRG-NH2; lactam 24-28)
9 | – | – | 0.05 | CC[C@H](C)[C@H](NC(=O)[C@H](Cc1ccccc1)NC(=O)[C@H](CCC(=O)O)NC(=O)[C@H](CCCCN)NC(=O)[C@H](C)NC(=O)[C@H](C)NC(=O)[C@H](CCC(N)=O)NC(=O)[C@@H]1CCC(=O)NCCCC[C@H](NC(=O)[C@H](CO)NC(=O)[C@@H](NC(=O)[C@H](CC(=O)O)NC(=O)[C@H](CO)NC(=O)[C@@H](NC(=O)[C@H](Cc2ccccc2)NC(=O)[C@@H](NC(=O)CNC(=O)[C@H](CCC(=O)O)NC(=O)[C@H](C)NC(=O)[C@@H](N)Cc2cnc[nH]2)[C@@H](C)O)[C@@H](C)O)C(C)C)C(=O)N[C@@H](Cc2ccc(O)cc2)C(=O)N[C@@H](CC(C)C)C(=O)N[C@@H](CCC(=O)O)C(=O)N1)C(=O)N[C@H]1CCCCNC(=O)C[C@@H](C(=O)NCC(=O)N[C@@H](CCCNC(=N)N)C(=O)NCC(N)=O)NC(=O)[C@H](C(C)C)NC(=O)[C@H](CC(C)C)NC(=O)[C@H](Cc2c[nH]c3ccccc23)NC1=O (H-HAEGTFTSDVSKYLEEQAAKEFIKWLVDGRG-NH2; lactam 12-16, 24-28)
